Entries after “also recorded” stand apart in the source; their conditions may differ.
Experiments:
[1] = system: NIH3T3 cells; assay: NIH3T3 cell growth inhibition (FIG. 3); type: cell-based, mouse; settings: NIH3T3 (murine) cells
Description: NIH3T3 (mouse embryo) cells were obtained from the American Type Culture Collection and were grown in Dulbecco's modified Eagle's medium supplemented with 10% calf serum. M600B immortalized human mammary epithelial cells (Stampfer, M.R., 1985, J. Tissue Culture Methods 9:107-115) were, obtained from Dr. Martha Stampfer and were grown in supplemented HCDB 170 medium (Hammond, et al. (1984) Proc. Natl. Acad. Sci U.S.A. 81:5435-5439), as described previously (Stampfer, et al. (1985) Proc. Natl. Acad. Sci U.S.A. 82:2394-2398; Eldridge, et al. (1989) Cancer Res. 49:4326-4331).
All cells were maintained in 100-mm dishes at 37° C. in a humidified 5% CO2 atmosphere. Viable cells were distinguished from nonviable cells by counting azure II/methylene blue-stained colonies 10 days after the cells were plated at a density of 100 cells per dish. Trypan blue exclusion was measured by incubating cells for 1 min with one drop of trypan blue per 10 ml of cells. Viable (colorless) and nonviable (blue) cells were then counted on a hemocytometer.
We examined the effect of several of the terpenes on certain types of cell growth. […] Additionally, growth of HT29 (human colon adenocarcinoma) cells was inhibited by 80% by 1 mM perillyl alcohol.

[2] = system: DMBA-induced rat mammary carcinomas; assay: Regression of DMBA-induced mammary carcinomas, pair-feeding study; type: in vivo, Wistar-Furth rat; settings: for Time to Regress (wks): primary carcinoma, footnote: Kaplan-Meier estimate of time when 25% regressed
Description: We used Wistar-Furth female rats for in vivo studies. Wistar-Furth female rats were obtained from Harlan Sprague-Dawley, Inc., (Madison, Wis.). All rats, arriving at 43-48 days of age, were housed at four rats per cage in wire-bottom metal cages and all were maintained with a light/dark cycle of 12 hours. Rats were provided Teklad Lab blox chow and acidified water ad libitum.
After one week of acclimation, the carcinogen DMBA was administered to the rats, which were 50-55 days old at this point. The DMBA was dissolved in a stock solution of 20 mg DMBA/ml sesame oil, heated and allowed to cool to room temperature before administration. DMBA (Eastman Kodak, Rochester, N.Y.) was given as a single gastric intubation of 50 mg DMBA/kg rat body weight.
In the pair-feeding study, a group of 70 mammals was treated with DMBA. Beginning four weeks post carcinogen administration, mammals were weighed and palpated weekly. Upon palpation of the first mammary carcinoma (diameter≥3 mm), mammals were randomly assigned to control or 2.5% (w/w) perillyl alcohol diet and pair-fed.
Perillyl alcohol (>96% pure by GC analysis, Aldrich, Milwaukee, Wis.) and Teklad 4% mouse/rat diet meal were thoroughly mixed and stored at -20° C. Fresh diets were made every 7-10 days. All mammals were provided fresh diet daily to minimize evaporation of the monoterpenes. For pair-feeding, the quantity of diet consumed by the monoterpene-fed mammals was measured every 24 hours and the assigned partner was pair-fed accordingly.
In the pair-feeding study, all palpable mammary carcinomas were classified as either "primary" tumors (i.e, the first tumor(s) palpated with a minimum diameter of 3 mm) or "secondary" tumors (i.e. a palpable tumor arising after initial diet assignment). At diet assignment, some mammals had more than one primary tumor. All carcinogen-exposed mammals not bearing a first palpable tumor by week 15 post-carcinogen were removed from the experiment. Complete regression of a tumor was defined as non-palpability for a minimum of three consecutive weeks. All mammals in the pair-feeding study were followed for a minimum of 10 weeks post-diet assignment for tumor growth or regression at primary tumor sites and all other mammary glands. The rats were necropsied if moribund. Complete necropsies were performed on all rats at the termination of the study. Greater than 95% of tumors remaining at the autopsy date were diagnosed as mammary carcinomas based on gross and histopathological criteria.

[3] = system: 21-26 kDa proteins; assay: Protein isoprenylation inhibition in M600B human mammary epithelial cells; settings: 3 mM
Description: To test whether a specific monoterpene affects isoprenylation of proteins in cells, cell extracts were incubated with a radioactive isoprene precursor and 0-5 mM of the test monoterpene and then subjected to SDS-PAGE. Because they carried a radioactive label, isoprenylated proteins were visualized by fluorography. As a control, cells were incubated without the monoterpene.
For both isoprenylation and cell growth assays, the monoterpenes were mixed with prewarmed (37° C.) medium containing 10% calf serum, and then the monoterpene-containing medium was added to cells. The relative effects of various monoterpenes on protein isoprenylation were compared by comparison of the relative intensity of bands on fluorograms from [^14 C]-mevalonate-labelled cells treated with each monoterpene.
Some fluorograms were analyzed further by densitometry. Where indicated, gels were sliced, dissolved at 50° C. for 3 hours in 0.5 ml of water+0.5 ml of Solvable (Amersham), and then analyzed by scintillation spectrometry in 10 ml of Atom light (Amersham) mixture.
Samples from each cell line were then analyzed on the same gel.

[4] = Plasma metabolite identification and quantitation in rats; type: in vivo, Wistar-Furth rat; settings: for DHPA (% total) / DHPAME (% total) / LIM/POH (% total) / PA (% total) / PAME (% total) / mM LIM/POH: plasma
Description: Control animals received oil alone. At the chosen time points, rats were anesthetized with ether and blood was collected into heparinized tubes (Heparin (Sigma, Grade II), at 20 mg/ml in 0.9% saline). Plasma was removed following centrifugation and stored at -20° C.
For quantitation of chronic plasma metabolite levels of perillyl alcohol, female WF rats were housed individually and fed fresh diet daily. The afternoon before blood collection, all rats were given approximately 20 grams of the appropriate diet and allowed to eat ad. libitum for 18 hours. Food consumption data was determined the next morning and the rats were bled within 2 hours following food removal.
Briefly, 5 μl of a 10 mM solution of perillaldehyde was added to 50 μl plasma as an internal standard for quantitation. The plasma was mixed with an equal volume of n-butanol:acetonitrile (1:1, v/v), after which another volume of saturated potassium phosphate was added. After vortexing, the samples were centrifuged and the organic layer removed from the top.
Plasma extracts were analyzed using a Hewlett-Packard 5891 gas chromatograph equipped with a flame-ionization detector or a Hewlett-Packard 5890 chromatograph equipped with a 5971A mass-selective detector, both with 30 m Supelco SPB-5 columns. The temperature program was 90° C. for 4 minutes, increasing by 10° C./minute, followed by 15 minutes at 275° C. The split ratio was 1:10 and the linear velocity was 1.1 ml/minute. Standard curves were generated by adding 5 μl rat plasma. Standards were then extracted and analyzed by capillary gas chromatography. The ratio of the terpene peak area/perillaldehyde peak area versus the concentration of terpene in the sample was plotted.

[5] = Chronic dietary toxicity in rats
[6] = 10% limonene diet or 2.5% POH diet
[7] = chronic week 3, 10% LIM or 2% POH diet
[8] = chronic week 5, 10% LIM or 2% POH diet
[9] = chronic week 10, 10% LIM or 2% POH diet

## C=C(C)[C@@H]1CC=C(CO)CC1 [perillyl alcohol]
[1]
  inhibition of cell growth: significantly inhibited cell growth in a dose-dependent manner
[2]; [6]
  Primary carcinoma regression (%): 81%
  Secondary carcinoma regression (%): 0%
  Secondary carcinoma regression (tumors regressed / tumors): 01/1
  Secondary carcinomas/rat: 0.04
[2]; after initial diet assignment
  development of secondary carcinomas: limited the development of secondary carcinomas
[2]
  Time to Regress (wks): 3.6 wks
[2]; listed as POH
  Time to Regress (wks): 3.6 ± 0.3 wks
[2]; to achieve these regression results
  amount of perillyl alcohol needed relative to limonene: 25%
[3]
  isoprenylation of 21-26 kDa proteins: inhibited significantly
[4]; acute gavage, any time point including 30 minutes
  parent detection in plasma: not detected at any time point including 30 minutes post-gavage
[4]; acute gavage, rat
  major metabolite detected: perillic acid
[4]; acutely administered, rat
  perillic and dihydroperillic acids in plasma: detectable at 24 hours post-administration
[4]; chronically fed rats
  parent compound in plasma: Neither limonene nor perillyl alcohol was detected
[4]; acute 1 g/kg, 4 hour
  DHPA (% total): 5 % total
  DHPAME (% total): < 1 % total
  LIM/POH (% total): 0 % total
  PA (% total): 71 % total
  PAME (% total): 24 % total
[4]; acute 1 g/kg, 4 hour, mean ± SEM
  mM LIM/POH: 0.00 ± 0.00 mM
[4]; [7]
  DHPA (% total): 19 % total
  DHPAME (% total): 2 % total
  LIM/POH (% total): 0 % total
  PA (% total): 69 % total
  PAME (% total): 10 % total
  mM LIM/POH: 0 mM
[4]; [8]
  DHPA (% total): 25 % total
  DHPAME (% total): 3 % total
  LIM/POH (% total): 0 % total
  PA (% total): 62 % total
  PAME (% total): 10 % total
  mM LIM/POH: 0 mM
[4]; [9]
  DHPA (% total): 28 % total
  DHPAME (% total): 4 % total
  LIM/POH (% total): 0 % total
  PA (% total): 59 % total
  PAME (% total): 10 % total
  mM LIM/POH: 0 mM
[4]; rat
  rate of conversion to metabolites: rapidly metabolized to the same metabolites as limonene; also recorded: more rapidly converted to metabolites than limonene
[4]; rat, 1 g/kg gavage, 4 hours
  major plasma metabolites: perillic acid and dihydroperillic acid
  minor plasma metabolites: minor levels of these acids' methyl esters
[5]; 0.5% POH diet, chronic
  weight change: very small weight loss followed by weight gain
[5]; 1.0% POH diet, chronic
  weight change: very small weight loss followed by weight gain
[5]; 2.0% POH diet, chronic
  tolerability: tolerated with weight loss followed by weight gain
[5]; 2.5% POH diet, chronic
  tolerability: tolerated with weight loss observed
[5]; 3.0% POH diet, chronic
  death: 2/5
[5]; dietary, data not shown
  maximum dose tolerated (% diet): 2.5%
[5]; perillyl alcohol-fed rats
  Toxicity: limited to weight loss
[5]; perillyl alcohol-fed, FIG. 8
  body weight versus controls: did not achieve weights similar to controls
